Laboratory results taken from US8637504B2, “Sulfur-containing heterocyclic derivative having beta secretase inhibitory activity” (Shionogi & Co., Ltd., priority 2008, dated 2014).
Read-outs that look alike come from different tables or passages of the source.

Legend:
[1] = Solubility test; assay type: physicochemical; conditions: pH 1.2, simulated gastric fluid, kinetic from dmso stock; JP-I medium, turbidity after 4 hours
Procedure: A 2-fold dilution series (12 points) of a 10 mM solution of a test compound in DMSO was added to a medium (JP-I, JP-II) (2%), and solubility was assessed by 3 stages (High; >40 Medium; 3-40 μM, Low; <3 μM) from a turbidity after 4 hours (crystallization information).

[2] = target: Recombinant human BACE-1 (Homo sapiens (Human), UniProt P56817); experiment: Assay of β-secretase-inhibiting activity
[3] = target: CYP2D6 (Homo sapiens (Human), UniProt P10635); experiment: CYP inhibition test (CYP2D6); assay type: in vitro ADME; conditions: pooled human hepatic microsome, dextromethorphan O-demethylation
Procedure: (§1) After the centrifugation at 3000 rpm for 15 minutes, resorufin (CYP1A2 metabolite) in the supernatant was quantified by a fluorescent multilabel counter and tributamide hydroxide (CYP2CP metabolite), mephenyloin 4′ hydroxide (CYP2C19 metabolite), […] (CYP2D6 metabolite), and terfenadine alcohol (CYP3A4 metabolite) were quantified by LC/MS/MS. Addition of only DMSO being a solvent dissolving a drug to a reaction system was adopted as a control (100%), remaining activity (%) was calculated at each concentration of a test drug added as the solution and […] was calculated by reverse presumption by a logistic model using a concentration and an inhibition rate.

[4] = target: CYP1A2 (Homo sapiens (Human), UniProt P05177); experiment: CYP inhibition test (CYP1A2); assay type: in vitro ADME; conditions: pooled human hepatic microsome, 7-ethoxyresorufin O-deethylation
Procedure: as §1

[5] = target: CYP2C9 (Homo sapiens (Human), UniProt P11712); experiment: CYP inhibition test (CYP2C9); assay type: in vitro ADME; conditions: pooled human hepatic microsome, tolbutamide methyl-hydroxylation
Procedure: as §1

[6] = target: CYP3A4 (Homo sapiens (Human), UniProt P08684); experiment: CYP inhibition test (CYP3A4); assay type: in vitro ADME; conditions: pooled human hepatic microsome, terfenedine hydroxylation
Procedure: as §1

[7] = target: CYP2C19 (Homo sapiens (Human), UniProt P33261); experiment: CYP inhibition test (CYP2C19); assay type: in vitro ADME; conditions: pooled human hepatic microsome, mephenyloin 4′-hydroxylation
Procedure: as §1

[8] = Metabolism stability test; assay type: in vitro ADME; conditions: human liver microsomes 0.5 mg protein/mL, NADPH, 37° C., 30 minutes
Procedure: Using a commercially available pooled human hepatic microsomes, a test compound was reacted for a constant time, a remaining rate was calculated by comparing a reacted sample and an unreacted sample, thereby, a degree of metabolism in liver was assessed.
A reaction was performed (oxidative reaction) at 37° C. for 0 minute or 30 minutes in the presence of 1 mmol/L NADPH in 0.2 mL of a buffer (50 mmol/L Tris-HCl pH 7.4, 150 mmol/L potassium chloride, 10 mmol/L magnesium chloride) containing 0.5 mg protein/mL of human liver microsomes. After the reaction, 50 μl, of the reaction solution was added to 100 μL of a methanol/acetonitrile=1/1 (v/v), mixed and centrifuged at 3000 rpm for 15 minutes. The test compound in the supernatant was quantified by LC/MS/MS, and a remaining amount of the test compound after the reaction was calculated, letting a compound amount at 0 minute reaction time to be 100%.

[9] = Recombinant human BACE-1 7.4 nM, substrate peptide 18 nM, pH 5.0, 30° C. 3 hours

Sequence of CYP1A2 (P05177 whole entry): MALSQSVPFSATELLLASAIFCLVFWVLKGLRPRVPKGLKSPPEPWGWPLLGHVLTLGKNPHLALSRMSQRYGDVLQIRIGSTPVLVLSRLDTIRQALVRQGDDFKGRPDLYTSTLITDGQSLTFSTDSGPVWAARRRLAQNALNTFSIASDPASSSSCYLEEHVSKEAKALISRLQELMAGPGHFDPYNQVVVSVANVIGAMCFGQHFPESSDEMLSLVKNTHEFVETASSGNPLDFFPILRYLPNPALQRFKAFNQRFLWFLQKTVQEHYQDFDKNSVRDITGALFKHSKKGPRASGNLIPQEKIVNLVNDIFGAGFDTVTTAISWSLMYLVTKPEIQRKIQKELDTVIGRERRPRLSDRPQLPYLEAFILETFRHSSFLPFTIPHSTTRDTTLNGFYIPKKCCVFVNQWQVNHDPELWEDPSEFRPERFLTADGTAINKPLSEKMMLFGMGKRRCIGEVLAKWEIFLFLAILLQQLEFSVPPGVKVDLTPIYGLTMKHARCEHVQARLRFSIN
Sequence of CYP2C19 (P33261 whole entry): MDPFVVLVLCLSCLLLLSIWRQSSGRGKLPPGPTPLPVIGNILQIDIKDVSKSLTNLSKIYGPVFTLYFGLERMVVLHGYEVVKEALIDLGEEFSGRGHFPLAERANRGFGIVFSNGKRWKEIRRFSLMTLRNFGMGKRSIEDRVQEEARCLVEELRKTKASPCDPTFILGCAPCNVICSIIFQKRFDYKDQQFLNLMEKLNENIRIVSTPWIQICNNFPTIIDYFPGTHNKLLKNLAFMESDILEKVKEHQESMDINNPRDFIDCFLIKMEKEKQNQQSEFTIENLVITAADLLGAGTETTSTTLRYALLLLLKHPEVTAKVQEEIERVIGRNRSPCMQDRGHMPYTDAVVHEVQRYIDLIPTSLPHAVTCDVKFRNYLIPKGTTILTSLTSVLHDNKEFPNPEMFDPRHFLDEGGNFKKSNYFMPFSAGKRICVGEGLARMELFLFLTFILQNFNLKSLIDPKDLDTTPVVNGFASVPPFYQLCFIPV
Sequence of Recombinant human BACE-1 (P56817 46-501): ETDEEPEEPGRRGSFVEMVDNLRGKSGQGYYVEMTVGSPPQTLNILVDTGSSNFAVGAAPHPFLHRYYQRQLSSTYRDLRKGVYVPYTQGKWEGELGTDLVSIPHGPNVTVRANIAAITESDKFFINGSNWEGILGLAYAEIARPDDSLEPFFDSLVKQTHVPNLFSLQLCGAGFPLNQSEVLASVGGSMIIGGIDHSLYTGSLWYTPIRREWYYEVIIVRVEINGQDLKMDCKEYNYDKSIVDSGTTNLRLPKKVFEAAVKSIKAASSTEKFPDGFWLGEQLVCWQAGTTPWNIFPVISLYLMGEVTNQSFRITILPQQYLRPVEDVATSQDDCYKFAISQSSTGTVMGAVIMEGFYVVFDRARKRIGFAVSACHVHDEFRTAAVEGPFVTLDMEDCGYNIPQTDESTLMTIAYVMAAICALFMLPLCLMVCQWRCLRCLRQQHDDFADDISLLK
Sequence of CYP2D6 (P10635 whole entry): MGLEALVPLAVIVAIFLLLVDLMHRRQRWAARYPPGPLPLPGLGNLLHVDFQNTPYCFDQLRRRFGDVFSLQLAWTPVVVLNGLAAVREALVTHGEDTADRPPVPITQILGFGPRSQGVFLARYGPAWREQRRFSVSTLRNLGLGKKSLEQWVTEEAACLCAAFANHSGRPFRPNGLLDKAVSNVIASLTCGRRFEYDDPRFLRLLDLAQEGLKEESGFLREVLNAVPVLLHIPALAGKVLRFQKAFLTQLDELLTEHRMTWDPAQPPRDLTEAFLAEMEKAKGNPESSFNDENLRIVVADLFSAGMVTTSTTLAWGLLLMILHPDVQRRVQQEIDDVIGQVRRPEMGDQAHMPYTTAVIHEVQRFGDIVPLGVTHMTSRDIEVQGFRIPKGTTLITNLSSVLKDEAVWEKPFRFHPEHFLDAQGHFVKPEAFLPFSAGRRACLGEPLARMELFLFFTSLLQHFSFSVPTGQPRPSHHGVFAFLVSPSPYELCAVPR
Sequence of CYP2C9 (P11712 whole entry): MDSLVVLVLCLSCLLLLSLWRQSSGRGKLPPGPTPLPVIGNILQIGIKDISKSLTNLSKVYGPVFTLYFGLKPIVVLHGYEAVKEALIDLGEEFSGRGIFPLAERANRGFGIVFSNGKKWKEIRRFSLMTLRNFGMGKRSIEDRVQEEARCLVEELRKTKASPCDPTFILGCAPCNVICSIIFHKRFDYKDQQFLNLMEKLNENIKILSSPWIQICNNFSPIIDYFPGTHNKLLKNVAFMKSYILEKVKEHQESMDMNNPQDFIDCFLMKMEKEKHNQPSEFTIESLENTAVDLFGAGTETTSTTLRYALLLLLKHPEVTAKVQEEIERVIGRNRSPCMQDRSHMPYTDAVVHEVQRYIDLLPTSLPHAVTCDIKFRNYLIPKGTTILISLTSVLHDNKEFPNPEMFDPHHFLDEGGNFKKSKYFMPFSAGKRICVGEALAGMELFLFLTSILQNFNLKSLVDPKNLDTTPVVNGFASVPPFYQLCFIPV
Sequence of CYP3A4 (P08684 whole entry): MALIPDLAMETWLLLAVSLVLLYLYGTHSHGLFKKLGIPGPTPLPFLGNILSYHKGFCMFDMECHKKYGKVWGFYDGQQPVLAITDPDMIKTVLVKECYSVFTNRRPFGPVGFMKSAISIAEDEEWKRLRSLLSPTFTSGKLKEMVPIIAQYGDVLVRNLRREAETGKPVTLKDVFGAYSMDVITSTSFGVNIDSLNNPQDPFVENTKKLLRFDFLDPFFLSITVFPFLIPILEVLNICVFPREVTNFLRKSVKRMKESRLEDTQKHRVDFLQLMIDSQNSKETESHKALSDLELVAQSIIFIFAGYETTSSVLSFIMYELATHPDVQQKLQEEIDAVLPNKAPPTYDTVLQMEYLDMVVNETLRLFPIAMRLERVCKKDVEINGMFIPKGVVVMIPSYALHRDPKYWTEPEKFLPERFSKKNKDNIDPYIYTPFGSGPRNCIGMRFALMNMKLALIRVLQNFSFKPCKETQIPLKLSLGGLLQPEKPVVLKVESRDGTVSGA

IC50 [2, 9] [nM]	IC50 [2] [nM]	SMILES	also measured
96	–	Cc1cc(C(=O)Nc2ccc(F)c([C@]3(C)C=CSC(N)=N3)c2)n(C)n1 [Compound 35]	IC50 [3]: > 20 µM; IC50 [4]: > 20 µM; IC50 [5]: > 20 µM; IC50 [6]: > 20 µM; IC50 [7]: > 20 µM
16	–	C=C1C[C@@](C)(c2cc(NC(=O)c3cnc(OC)cn3)ccc2F)N=C(N)S1 [Compound 51]	–
–	≤ 1000	CC(C)(O)/C=C1/C[C@@](C)(c2cc(NC(=O)c3ccc(C#N)cn3)ccc2F)N=C(N)S1 [Compound 55]	–
–	≤ 1000	NC1=NC(c2ccc(OC(F)(F)F)cc2)(c2cccc(NC(=O)c3ncc(Cl)cc3Cl)c2)CS1 (centres unmarked) [Compound 57]	–
186	–	COc1ccc(C2(c3cccc(NC(=O)c4ncc(Cl)cc4Cl)c3)CSC(N)=N2)cc1O (centres unmarked) [Compound 58]	–
243	–	Cn1ccnc1COc1cnc(C(=O)Nc2ccc(F)c([C@]3(C)C=CSC(N)=N3)c2)cn1 [Compound 60]	solubility at 4 h [1]: > 40 µM
435	–	C[C@@]1(c2cc(NC(=O)c3cc4n(n3)CCN4)ccc2F)C=CSC(N)=N1 [Compound 63]	IC50 [3]: > 20 µM; IC50 [4]: > 20 µM; IC50 [5]: > 20 µM; IC50 [6]: > 20 µM; IC50 [7]: > 20 µM
296	–	C[C@@]1(c2cc(NC(=O)c3cnc(NS(C)(=O)=O)cn3)ccc2F)C=CSC(N)=N1 [Compound 66]	–
250	–	C[C@@]1(c2cc(NC(=O)c3cnc(-n4ccnn4)cn3)ccc2F)C=CSC(N)=N1 [Compound 72]	–
234	–	C[C@@]1(c2cc(NC(=O)c3cnc(-n4nccn4)cn3)ccc2F)C=CSC(N)=N1 [Compound 73]	–
–	≤ 1000	C[C@@]1(c2cc(NC(=O)c3ncc(C#N)cn3)ccc2F)C=CSC(N)=N1 [Compound 78]	–
24	–	C[C@@]1(c2cc(NC(=O)c3ncc(Br)cn3)ccc2F)C=CSC(N)=N1 [Compound 79]	–
–	≤ 1000	C[C@@]1(c2cc(NC(=O)c3ncc(Cl)cn3)ccc2F)C=CSC(N)=N1 [Compound 80]	–
–	≤ 1000	C/C(CN(C)C)=C1\C[C@@](C)(c2cc(NC(=O)c3ccc(C#N)cn3)ccc2F)N=C(N)S1 [Compound 100]	–
–	≤ 1000	C=C1C[C@@](C)(c2cncc(NC(=O)c3ccc(C(F)(F)F)cn3)c2)N=C(N)S1 [Compound 107]	–

Second part, the compound before the results:

SMILES	IC50 [2, 9] [nM]	IC50 [2] [nM]	also measured
COc1cnc(C(=O)Nc2cccc(C3(C4CCCCC4)CSC(N)=N3)c2)cn1 (centres unmarked) [Compound 2]	–	–	solubility at 4 h [1]: > 40 µM
NC1=NC(c2ccc(F)cc2)(c2cccc(NC(=O)c3ncc(Cl)cc3Cl)c2)CS1 (centres unmarked) [Compound 9]	–	–	solubility at 4 h [1]: > 40 µM
CC1=CSC(N)=N[C@]1(C)c1cc(NC(=O)c2cnc(C)cn2)ccc1F [Compound 23]	5280	–	solubility at 4 h [1]: > 40 µM
C[C@@]1(c2cc(NC(=O)c3ccc(OCCF)cn3)ccc2F)C=CSC(N)=N1 [Compound 32]	–	≤ 1000	solubility at 4 h [1]: > 40 µM
C[C@@]1(c2cc(NC(=O)c3cnc(-c4ncco4)cn3)ccc2F)C=CSC(N)=N1 [Compound 38]	304	–	remaining amount of the test compound after the reaction [8]: 95%
C=C1C[C@@](C)(c2cc(NC(=O)c3ccc(C#N)cn3)ccc2F)N=C(N)S1 [Compound 50]	–	≤ 1000	–
C=C1C[C@@](C)(c2cc(NC(=O)c3ncc(Cl)cc3Cl)ccc2F)N=C(N)S1 [Compound 52]	–	≤ 1000	–
C=C1C[C@@](C)(c2cc(NC(=O)c3cnc(C)cn3)ccc2F)N=C(N)S1 [Compound 53]	76	–	–
C[C@@]1(c2cc(NC(=O)c3ccc(C#N)cn3)ccc2F)C/C(=C/CO)SC(N)=N1 [Compound 54]	–	≤ 1000	–
NC1=NC(c2cccc(F)c2)(c2cccc(NC(=O)c3ncc(Cl)cc3Cl)c2)CS1 (centres unmarked) [Compound 56]	352	–	–
C[C@@]1(c2cc(NC(=O)c3ncc(C#N)cc3Cl)ccc2F)C=CSC(N)=N1 [Compound 59]	19	–	–
C[C@@]1(c2cc(NC(=O)c3cnc(OCc4ncc[nH]4)cn3)ccc2F)C=CSC(N)=N1 [Compound 61]	169	–	–
CC(C)(C)S(=O)(=O)Nc1cnc(C(=O)Nc2ccc(F)c([C@]3(C)C=CSC(N)=N3)c2)cn1 [Compound 68]	–	–	IC50 [3]: > 20 µM; IC50 [4]: > 20 µM; IC50 [5]: > 20 µM; IC50 [6]: > 20 µM; IC50 [7]: > 20 µM
C[C@@]1(c2cc(NC(=O)c3cnc(-n4cncn4)cn3)ccc2F)C=CSC(N)=N1 [Compound 70]	36	–	remaining amount of the test compound after the reaction [8]: 94%; solubility at 4 h [1]: > 40 µM
Cc1ncn(-c2cnc(C(=O)Nc3ccc(F)c([C@]4(C)C=CSC(N)=N4)c3)cn2)n1 [Compound 74]	–	≤ 1000	–
Cc1ncnn1-c1cnc(C(=O)Nc2ccc(F)c([C@]3(C)C=CSC(N)=N3)c2)cn1 [Compound 75]	697	–	–

SMILES	IC50 [2, 9] [nM]	IC50 [2] [nM]	also measured
C[C@@]1(c2cc(NC(=O)c3ccc(F)cn3)ccc2F)C=CSC(N)=N1 [Compound 76]	62	–	–
C[C@@]1(c2cc(NC(=O)c3ncc(F)cc3F)ccc2F)C=CSC(N)=N1 [Compound 77]	–	≤ 1000	–
Cc1c(C(=O)Nc2ccc(F)c([C@]3(C)C=CSC(N)=N3)c2)oc2ccc(Br)cc12 [Compound 81]	7	–	–
C[C@@]1(c2cc(NC(=O)c3ncc(C#N)cc3F)ccc2F)C=CSC(N)=N1 [Compound 84]	–	≤ 1000	–
C/C(CO)=C1\C[C@@](C)(c2cc(NC(=O)c3ccc(C#N)cn3)ccc2F)N=C(N)S1 [Compound 85]	–	≤ 1000	–
C/C(=C1\C[C@@](C)(c2cc(NC(=O)c3ccc(C#N)cn3)ccc2F)N=C(N)S1)C(F)F [Compound 94]	–	≤ 1000	–
C=C1C[C@@](C)(c2cc(NC(=O)c3ccc(C#N)cn3)cnc2Cl)N=C(N)S1 [Compound 95]	–	≤ 1000	–
C/C(CN1CCOCC1)=C1\C[C@@](C)(c2cc(NC(=O)c3ccc(C#N)cn3)ccc2F)N=C(N)S1 [Compound 96]	–	≤ 1000	–
C/C(CN1CCCC1)=C1\C[C@@](C)(c2cc(NC(=O)c3ccc(C#N)cn3)ccc2F)N=C(N)S1 [Compound 98]	–	≤ 1000	–
C=C1C[C@@](C)(c2cc(NC(=O)c3ncc(C#N)cc3F)cnc2Cl)N=C(N)S1 [Compound 101]	22	–	–
C=C1C[C@@](C)(c2cc(NC(=O)c3ccc(C#N)cn3)cnc2C)N=C(N)S1 [Compound 103]	–	≤ 1000	–
C=C1C[C@@](C)(c2cncc(NC(=O)c3cnc(OC)cn3)c2)N=C(N)S1 [Compound 104]	63	–	IC50 [3]: > 20 µM; IC50 [4]: > 20 µM; IC50 [5]: > 20 µM; IC50 [6]: > 20 µM; IC50 [7]: > 20 µM
C=C1C[C@@](C)(c2cncc(NC(=O)c3ccc(C#N)cn3)c2)N=C(N)S1 [Compound 105]	–	≤ 1000	–
C=C1C[C@@](C)(c2cncc(NC(=O)c3ncc(C(F)(F)F)cc3Cl)c2)N=C(N)S1 [Compound 106]	102	–	IC50 [3]: > 20 µM; IC50 [4]: > 20 µM; IC50 [5]: > 20 µM; IC50 [6]: > 20 µM; IC50 [7]: > 20 µM
C[C@@]1(c2cccc(-c3cncc(C#N)c3)c2)CCSC(N)=N1 [Compound 212]	–	–	remaining amount of the test compound after the reaction [8]: 95%
C[C@@]1(c2cccc(-c3ccc(F)nc3F)c2)CCSC(N)=N1 [Compound 213]	–	–	remaining amount of the test compound after the reaction [8]: 98%
